The source of these data is US20200377459A1, “CHARGED ION CHANNEL BLOCKERS AND METHODS FOR USE” (President and Fellows of Harvard College, priority 2015, published 2020).

Molecules are shown by their SMILES.

For one experiment, the target named is T1, human Nav1.7 channels (Homo sapiens, UniProt Q15858).
T1 construct: expressed in transfected cells
Kind of experiment: Whole-cell patch clamp, use-dependent block of sodium current, drug applied intracellularly or externally. As to conditions: for effect on sodium current when applied externally versus inside the cell: same protocol, applied outside the cell. It counts as cell-based. How it is done: Whole-cell recordings were made of currents carried by voltage-activated channels in HEK293 cells stably expressing human Nav1.7 channels. Recordings were made using patch pipettes with resistances of 2-3.5 MQ when filled with internal solution, consisting of 61 mM CsF, 61 mM CsCl, 9 mM NaCl, 1.8 mM MgCl2, 9 mM EGTA, 14 mM creatine phosphate (tris salt), 4 mM MgATP, and 0.3 mM GTP (tris salt), 9 mM HEPES, pH adjusted to 7.2 with CsOH. The shank of the electrode was wrapped with Parafilm in order to reduce capacitance and allow optimal series resistance compensation without oscillation. Seals were obtained and the whole-cell configuration established with cells in Tyrode's solution (155 mM NaCl, 3.5 mM KCl, 1.5 mM CaCl2), 1 mM MgCl2, 10 mM HEPES, 10 mM glucose, pH adjusted to 7.4 with NaOH) with 10 mM TEACl. To ensure complete dialysis with pipette solution, recordings began after 5 to 10 min after establishment of the whole-cell configuration.
Currents were recorded at room temperature (21-23° C.) with an Axopatch 200 amplifier and filtered at 5 kHz with a low-pass Bessel filter. The amplifier was tuned for partial compensation of series resistance (typically 70-80% of a total series resistance of 4-10 MO). Currents were digitized using a Digidata 1322A data acquisition interface controlled by pClamp9.2 software (Axon Instruments) and analyzed using programs written in Igor Pro 4.0 (Wavemetrics, Lake Oswego, Oreg.). Currents were corrected for linear capacitative and leak currents determined using 5 mV hyperpolarizations delivered from the resting potential (usually −80 or −100 mV) and then appropriately scaled and subtracted.
Sodium currents were evoked by 30-msec depolarizations from −100 mV to −20 mV. To assay use-dependent block, pulses were delivered at series of increasing rates: 0.05 Hz for 1-min, 0.33 Hz for 1-min, 1 Hz for 1-min, 3 Hz for 1-min, 5 Hz for 30 seconds, 10 Hz for 30 seconds, with 1 minute rest between each series of pulses. After the series of pulses to induce use-dependent block, the time course of recovery was followed using pulses delivered at 01. Hz (2-min) and 0.05 Hz (1-min).
To induce use-dependent block, the depolarizations were delivered by series of increasing rates: 0.05 Hz for 1-min, 0.33 Hz for 1-min, 1 Hz for 1-min, 3 Hz for 1-min, 5 Hz for 30 seconds, 10 Hz for 30 seconds, with 1 minute rest between each series of pulses. After the series of pulses to induce use-dependent block, the time course of recovery was followed using pulses delivered at 01. Hz (2-min) and 0.05 Hz (1-min). Peak sodium current was plotted as a function of experimental time (1-min per division on the time axis).
On the technique in general: Patch clamp records ionic current or voltage across a cell membrane.

In experiment [1] the test system is CFA-induced thermal hyperalgesia. Kind of experiment: CFA-induced thermal hyperalgesia (Hargreaves radiant heat, hind paw). It counts as in vivo. As to conditions: mice, intraplantar co-injection with CFA, 1%. The procedure: FIGS. 2A-2D show reversal of CFA-induced thermal hyperalgesia by charged sodium channel blockers. FIGS. 2A and 2C show time course (0, 1, 6, and 24 hours) of changes in thermal nociceptive sensitivity measured as response latency (seconds) to a constant radiant heat source applied to the plantar surface of hind paw in mice co-treated with 20 μL (injected in the left hindpaw) of CFA (50% emulsion) and saline, and when the CFA was co-applied with QX-314 (1%, hollow square), N-ethyl etidocaine (Compound 21, 1%; dark square), or ACS8180-3B (Compound 3, 1%; solid triangle). FIGS. 2B and 2D show the nociceptive heat pain response time before CFA treatment and after treatment with the different compounds 1 hour post CFA injection. The data are means±SEM of 8-16 mice per group. The statistical comparison with pre-CFA (*) and with CFA+Vehicle (+) is indicated by +P<0.05; ++P<0.01 and +++,*** P<0.001. All procedures were approved by the Institutional Animal Care and Use Committees. Mice and rats were housed in standard environmental conditions (12-h light/dark cycle; 23° C.; food and water ad libitum) at facilities accredited by the Association for Assessment and Accreditation of Laboratory Animal Care. 8-week old male BALB/c (stock number: 001026) and C57BL/6J (stock number 000664) mice were purchased from Jackson Laboratory and respectively used in allergic airway inflammation (FIG. 5) and pain hypersensitivity model (FIGS. 2A-2D). 6-week old male Sprague-Dawley (stock number: 400) rats, 150±25 grams, were purchased from Charles River laboratory and used to assess pain hypersensitivity (FIG. 3). The compounds were injected in the plantar surface of each animal's right hind paw in 10 μl (mice) or 50 μl (rats) volume of 1:1 emulsion of Complete Freund's Adjuvant (CFA). […] On the 4th day, their thermal nociceptive threshold was evaluated. […] Impact of treatment was analyzed 1 h prior and 1, 3, 6 and 24 h post-treatment. […] With each reading the apparatus was set with a cut-off time of 32 s.

For experiment [2], the system named is thermal nociceptive threshold. Description: Thermal nociceptive threshold after acute intraplantar injection in naive animals. It counts as in vivo, rats. As to conditions: naïve animals.

T1 sequence (Q15858 whole entry): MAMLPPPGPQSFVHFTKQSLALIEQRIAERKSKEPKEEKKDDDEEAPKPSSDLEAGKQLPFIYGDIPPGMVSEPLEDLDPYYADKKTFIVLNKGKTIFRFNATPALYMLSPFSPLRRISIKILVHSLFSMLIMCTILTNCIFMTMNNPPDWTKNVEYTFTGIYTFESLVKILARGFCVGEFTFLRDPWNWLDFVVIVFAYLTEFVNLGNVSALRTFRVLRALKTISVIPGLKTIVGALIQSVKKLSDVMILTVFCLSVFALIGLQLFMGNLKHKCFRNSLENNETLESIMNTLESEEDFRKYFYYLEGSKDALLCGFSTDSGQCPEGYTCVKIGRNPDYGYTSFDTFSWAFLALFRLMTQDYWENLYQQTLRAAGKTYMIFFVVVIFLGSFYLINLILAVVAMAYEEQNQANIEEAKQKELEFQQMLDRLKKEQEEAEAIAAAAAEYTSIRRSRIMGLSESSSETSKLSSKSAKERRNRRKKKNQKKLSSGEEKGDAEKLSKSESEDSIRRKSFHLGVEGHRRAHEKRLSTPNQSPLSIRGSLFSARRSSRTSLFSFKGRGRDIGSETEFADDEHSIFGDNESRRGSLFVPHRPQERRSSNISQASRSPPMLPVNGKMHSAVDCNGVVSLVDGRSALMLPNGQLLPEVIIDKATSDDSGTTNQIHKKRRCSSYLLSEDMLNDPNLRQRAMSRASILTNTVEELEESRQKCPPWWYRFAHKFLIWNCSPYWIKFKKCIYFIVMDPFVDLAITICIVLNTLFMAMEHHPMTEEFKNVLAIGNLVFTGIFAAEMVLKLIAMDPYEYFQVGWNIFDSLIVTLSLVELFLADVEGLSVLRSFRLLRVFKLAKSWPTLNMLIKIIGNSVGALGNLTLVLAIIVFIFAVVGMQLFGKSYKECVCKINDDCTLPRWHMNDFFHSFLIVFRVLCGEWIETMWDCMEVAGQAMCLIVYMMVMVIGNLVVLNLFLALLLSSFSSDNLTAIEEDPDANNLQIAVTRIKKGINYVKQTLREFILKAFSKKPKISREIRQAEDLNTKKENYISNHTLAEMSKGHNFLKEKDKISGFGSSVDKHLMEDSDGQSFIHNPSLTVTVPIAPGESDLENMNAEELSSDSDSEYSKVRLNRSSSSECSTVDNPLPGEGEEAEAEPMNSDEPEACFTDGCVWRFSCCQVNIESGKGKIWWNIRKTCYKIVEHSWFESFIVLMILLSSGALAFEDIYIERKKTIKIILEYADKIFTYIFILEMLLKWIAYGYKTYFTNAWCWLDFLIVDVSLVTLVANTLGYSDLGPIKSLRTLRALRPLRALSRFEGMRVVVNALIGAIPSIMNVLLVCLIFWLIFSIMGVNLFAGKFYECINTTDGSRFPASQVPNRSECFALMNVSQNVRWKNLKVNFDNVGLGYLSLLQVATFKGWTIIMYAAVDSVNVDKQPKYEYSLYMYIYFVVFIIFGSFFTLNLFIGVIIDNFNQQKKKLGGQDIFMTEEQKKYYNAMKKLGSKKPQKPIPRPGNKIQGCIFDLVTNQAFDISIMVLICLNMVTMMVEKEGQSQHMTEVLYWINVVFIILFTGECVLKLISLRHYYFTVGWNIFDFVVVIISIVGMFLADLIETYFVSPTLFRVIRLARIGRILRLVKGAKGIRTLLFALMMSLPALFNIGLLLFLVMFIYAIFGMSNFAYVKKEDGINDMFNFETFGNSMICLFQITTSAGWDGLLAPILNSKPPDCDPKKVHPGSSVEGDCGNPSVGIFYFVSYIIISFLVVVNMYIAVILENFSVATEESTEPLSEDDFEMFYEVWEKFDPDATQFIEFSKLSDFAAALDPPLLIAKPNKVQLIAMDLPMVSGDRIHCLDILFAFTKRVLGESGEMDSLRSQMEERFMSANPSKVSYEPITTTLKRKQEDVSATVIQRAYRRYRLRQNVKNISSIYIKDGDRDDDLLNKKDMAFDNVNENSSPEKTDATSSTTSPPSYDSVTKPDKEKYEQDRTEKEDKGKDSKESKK

On to `Cc1cccc(C)c1NC(=O)C(C)[N+]1(C)CCCC1` (stereo not shown) [Compound 1, 1-(1-(2,6-dimethylphenylamino)-1-oxopropan-2-yl)-1-methylpyrrolidinium Chloride], for which, at human Nav1.7 channels, the inhibition at 100 µM came to 40%. The compound `Cc1cc(F)cc(C)c1NC(=O)C1CCCC[N+]1(C)C` (stereo not shown) [Compound 16, 2-(4-fluoro-2,6-dimethylphenylcarbamoyl)-1,1-dimethylpiperidinium Chloride] registered an inhibition at 100 µM against human Nav1.7 channels of 70%. As for `Cc1cccc(C)c1NC(=O)C(C)(C)[N+]1(C)CCCCC1` [Compound 5, 1-(1-(2,6-dimethylphenylamino)-2-methyl-1-oxopropan-2-yl)-1-methylpiperidinium Chloride], testing at 100 µM at human Nav1.7 channels gave an inhibition of 34%. The same measure, in the same setting: the value for `CC[N+](CC)(CC)CCNC(=O)c1c(C)cccc1C` [Compound 25] was 3%. For `CCC(C(=O)Nc1c(C)cccc1C)[N+]1(CC)CCCCC1` (stereo not shown) [Compound 6, 1-(1-(2,6-dimethylphenylamino)-1-oxobutan-2-yl)-1-ethylpiperidinium], at human Nav1.7 channels, the inhibition at 100 µM was determined as 83% and the “effect on sodium current when applied externally versus inside the cell” value is listed as “far more effective when applied inside the cell”. Besides, at human Nav1.7 channels (100 micromolar inside cell, stimulation frequencies from 1 to 10 Hz), the “use dependent accumulation of block” value is “strong use dependent accumulation of block”. Moreover, on human Nav1.7 channels (listed as compound 6), the “effect on sodium current when applied externally versus inside the cell” value was “very little effect”. `Cc1cccc(C)c1NC(=O)C(C)[N+]1(C)CCCCC1` (stereo not shown) [Compound 4, 1-(1-(2,6-dimethylphenylamino)-1-oxopropan-2-yl)-1-methylpiperidinium Chloride] displayed an inhibition at 100 µM at human Nav1.7 channels of 43%.

`CC[N+](CC)(CC)CCC(=O)Nc1c(C)cccc1C` [Compound 24, 3-(2,6-dimethylphenylamino)-N,N,N-triethyl-3-oxopropan-1-aminium Chloride] yielded an inhibition at 100 µM on human Nav1.7 channels of 15%.

The compound `CC[N+]1(CC)CCCC1C(=O)Nc1c(C)cccc1C` (stereo not shown) [Compound 14, 2-(2,6-dimethylphenylcarbamoyl)-1,1-diethylpyrrolidinium Chloride] returned an inhibition at 100 µM at human Nav1.7 channels of 62%. As to `CC[N+](CC)(CC)CC(=O)Nc1c(C)cc(N)cc1C` [Compound 23, 2-(4-amino-2,6-dimethylphenylamino)-N, N, N-triethyl-2-oxoethanaminium Chloride], testing at 100 µM against human Nav1.7 channels gave an inhibition of 56%.

At human Nav1.7 channels, `Cc1cccc(C)c1NC(=O)C(C)(C)[N+]1(C)CCCC1` [Compound 2, 1-(1-(2,6-dimethylphenylamino)-2-methyl-1-oxopropan-2-yl)-1-methylpyrrolidinium Chloride] came in with an inhibition at 100 µM of 42%. On the same count and under the same terms, for `CC[N+]1(CC)CCCCC1C(=O)Nc1c(C)cccc1C` (stereo not shown) [Compound 15, 2-(2,6-dimethylphenylcarbamoyl)-1,1-diethylpiperidinium Chloride] the value was 40%; for `CC[N+](CC)(CC)CC(=O)Nc1ccc(N)cc1` [Compound 22, 2-(4-aminophenylamino)-N,N,N-triethyl-2-oxoethanaminium], 0%. Same read-out and setting: for `Cc1cccc(C)c1NC(=O)C1CCC[N+]1(C)C` (stereo not shown) [Compound 13, 2-(2,6-dimethylphenylcarbamoyl)-1,1-dimethylpyrrolidinium Chloride] the value was 33%. As to `CCC(C(=O)Nc1c(C)cccc1C)[N+]1(CC)CCCC1` (stereo not shown) [Compound 3, 1-(1-(2,6-dimethylphenylamino)-1-oxobutan-2-yl)-1-ethylpyrrolidinium Chloride], on human Nav1.7 channels, the inhibition at 100 µM turned out to be 78%. Moreover, the “reversal of CFA-induced thermal hyperalgesia” value in experiment [1] is on record as “potent blockade”. In addition, the “long lasting analgesia in naïve animals” value in experiment [2] was “without long lasting analgesia”.

As usually defined, the inhibition is the share of the control response that was lost under treatment. A higher inhibition goes with strong suppression.
